Read-outs that look alike come from different tables or passages of the source.
Legend:
[1] = biological target: T1, Porcine pancreatic phospholipase A2 (Sus scrofa, UniProt P00592); test: Phospholipase A2 inhibitory activity, method A (egg yolk lecithin substrate); format: biochemical; settings: 1,000 ppm, 37°C for 30 minutes, read-out: % inhibition of PLA2 (1,000 ppm)
T1 construct: purchased Boehringer Mannheim·Yamanouchi K.K. 161454·122416
Procedure: To 10 mg of egg yolk lecithin (manufactured by Wako Pure Chemical Industries Ltd.), 1 ml of glycerine, 2 ml of a 50 mM Tris-HCl buffer solution (pH7.5) [Tris(hydroxymethyl)aminomethane (manufactured by Nacalai Tesque K.K.) was adjusted to pH7.5 with hydrochloric acid], 0.5 ml of a 150 mM calcium chloride solution (calcium chloride was dissolved in a 50 mM Tris-HCl buffer solution) and 0.5 ml of a 0.05% Triton-X100 (manufactured by Nacalai Tesque K.K.) solution (Triton-X100 was dissolved in a 50 mM Tris-HCl buffer solution), were added and dispersed by an agate mortar or dispersed by an ultrasonic processor (Model W-225, manufactured by Heat System-Ultrasonics, Inc.) for 5 minutes (30W) to obtain a substrate.
Porcine pancreatic phospholipase A2 [(161454·122416) manufactured by Boehringer Mannheim·Yamanouchi K.K.] was used.
To a 96 well microtitration plate (flat bottom, manufactured by Sumitomo Bakelite Medical Co., Ltd.), 40 µl of the substrate, 5 µl of a solution prepared by dissolving 10 mg of a test compound in 500 µl of dimethylsulfoxide, followed by an addition of 500 µl of a 50 mM Tris-HCl buffer solution, and 5 µl of an enzyme solution of 20 ng/ml (prepared by diluting the enzyme in a 50 mM Tris-HCl buffer solution), were added and reacted at 37°C for 30 minutes. After termination of the reaction, the released free fatty acid was quantitatively analyzed in accordance with the ACS-ACOD (acyl CoA synthetase-acyl CoA oxidase) method [a kit of NEFA C test wako (manufactured by Wako Pure Chemical Industries, Ltd.) was used]. The quantitative analysis was made by means of Microplate ELISA Reader (Model 2550EIA Reader, manufactured by Bio-Rad Laboratories) at a wavelength of 540 nm. Separately, such experiments as mentioned above, were carried out at various concentrations (2 µg/ml, 1 µg/ml and 0.5 µg/ml) of phospholipase A2 without a test compound. Then, the concentration of the free fatty acid versus the concentration of phospholipase A2 was plotted.
From this standard curve, the apparent concentration of phospholipase A2 in the case with a test compound, was read. Then, the percent inhibition of the enzyme was calculated by the following formula. Percent inhibition (%) = (l -(A)/(B)) x 100 [formula] • A: Apparent enzyme concentration when a test compound is added. • B: True enzyme concentration when a test compound is added.

[2] = test system: increased vascular permeability induced by acetic acid; test: Inhibitory activity on increased vascular permeability induced by acetic acid (Mouse Whittle method, method C); format: in vivo, ddy male mice; settings: amount of leaked dye
Procedure: Using ddy male mice, each test group consisted of 4 or 5 mice. A test compound was mixed with Tween 80 [polyoxyethylenesorbitan monooleate (manufactured by Nacalai Tesque K.K.)], and distilled water was added thereto to obtain a 2% Tween 80 suspension, or it was dissolved in the form of a salt in water to obtain an aqueous solution. A test compound was orally administered, and upon expiration of one hour from the administration, 0.7% acetic acid was intraperitonially injected to each mouse in an amount of 0.1 ml/10 g, and at the same time, 2% brilliant blue was intravenously injected into the tail vein in an amount of 0.1 ml/20 g. Thirty minutes after the injection of brilliant blue, the cervical vertebrae were dislocated under anesthesia by chloroform, and the abdorminal cavity was washed with 5 ml of a physiological saline. The washing solution was subjected to centrifugal separation at 3,000 rpm for 10 minutes, and the amount of the dye in the supernatant was measured at 600 nm absorbance by Microplate ELISA Reader (Model 2550EIA Reader, manufactured by Bio-Rad Laboratories). The inhibition rate of the amount of leaked dye in the group in which a test compound was administered relative to the control group was obtained by the following formula. Inhibition rate (%) = (l -(C)/(D)) x 100 [formula] • C: Amount of leaked dye in the group to which a test compound was administered. • D: Amount of leaked dye in the control group.

[3] = Acute toxicity, intravenous injection (LD50); format: in vivo; settings: mouse, in vivo, ddy male mice, sodium salt, mortality over one week
Procedure: Administration route: Intravenous injection
Using ddy male mice (body weight: 25 - 30 g), each test group consisted of 5 mice. A test compound was dissolved in the form of a sodium salt in a physiological saline or in a 5% glucose aqueous solution, and intravenously injected in an amount of 0.1 ml/10 g body weight. After the injection, the mortality rate was obtained over one week, and the median lethal dose LD50 (mg/kg) was determined.

[4] = test system: experimental acute pancreatitis model; test: Effects against acute pancreatitis (Test Example 8, closed duodenal loop method, lesion scores); format: in vivo, Crj-CD male rats; settings: sodium salt, 6 hours after ventrotomy; for inhibition in vivo at 10 mg/kg: Rattus norvegicus, 10 mg/kg single intravenous injection
Method in brief: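 Closed duodenal loop pancreatitis in male Crj-CD rats (n=3) under halothane/nitrous oxide; sodium-salt compounds given i.v. into tail vein by continuous infusion or bolus, controls untreated. At 6 h, four pancreatic lesions scored 0-3; inhibition % of total and hemorrhagic scores calculated versus control.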

[5] = test system: carrageenin edema; test: Inhibitory activity on carrageenin edema; format: in vivo, Wistar male rats; settings: po, 3 h; rat; dose 100 mg/kg orally; paw swelling volume three hours after carrageenin; read-out: Inhibition rate (%)
Method in brief: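 Male Wistar rats (about 100 g, 5 per group) dosed orally at 200, 100, 50 or 25 mg/kg as 2% Tween 80 suspension or aqueous salt solution, 1 h before subplantar injection of 0.1 ml 1% λ-carrageenin. Paw swelling measured at 3 h; % inhibition versus control group mean swelling.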

[6] = biological target: T1, Porcine pancreatic phospholipase A2; test: Phospholipase A2 inhibitory activity, method B (L-α-dipalmitoylphosphatidylcholine substrate); format: biochemical; settings: 1,000 ppm, 37°C for 30 minutes, read-out: % inhibition of PLA2 (1,000 ppm)
Method in brief: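 Substrate: L-α-dipalmitoylphosphatidylcholine/sodium cholate mixed micelles in 250 mM NaCl, 100 mM Tris-HCl pH 8.0. Enzyme (10 µg/ml stock) incubated with compound in buffer containing CaCl2 and BSA, 30 min at 37 °C. Released free fatty acid measured by ACS-ACOD at 540 nm; % inhibition derived from apparent enzyme concentration read off a standard curve.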

[7] = read-out: Inhibition rate of hemorrhagic lesions (%)
[8] = read-out: Inhibition rate of pancreatitis lesions (%)
[9] = 20 mg/kg continuous intravenous injection

T1 sequence (P00592 23-146): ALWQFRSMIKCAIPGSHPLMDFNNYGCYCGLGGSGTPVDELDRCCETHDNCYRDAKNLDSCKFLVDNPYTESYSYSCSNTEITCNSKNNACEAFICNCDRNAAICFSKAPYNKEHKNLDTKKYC

Row | SMILES | inhibition at 1000 ppm [1] [%] | Inhibition rate (%) ([2]; dose 50 mg/kg orally) | LD50 at 168 h ([3]; iv) [mg/kg] | Inhibition rate (%) ([2]; dose 20 mg/kg orally) | inhibition in vivo at 100 mg/kg [5] [%] | other results
1 | CCCC(=O)Nc1cc(C(F)(F)F)cnc1NS(C)(=O)=O [Compound No. 1] | 45 | 46 | 100 to 150 |  |  | inhibition in vivo at 10 mg/kg [4, 7]: 66%; inhibition in vivo at 10 mg/kg [4, 8]: 49%
2 | CCCCC(=O)Nc1cc(C(F)(F)F)cnc1NS(C)(=O)=O [Compound No. 2] | 55 |  | 50 to 100 | 51 | 17 | Inhibition rate of hemorrhagic lesions (%) ([4]; 26 mg/kg continuous intravenous injection): 46%
3 | CCCCCC(=O)Nc1cc(C(F)(F)F)cnc1NS(C)(=O)=O [Compound No. 3] | 67 | 58 | > 100 |  | 20 | inhibition in vivo at 10 mg/kg [4, 7]: 49%; inhibition in vivo at 10 mg/kg [4, 8]: 51%
4 | CCCCCCCCCCCC(=O)Nc1cc(C(F)(F)F)cnc1NS(C)(=O)=O [compound 5] | 39 | 53 |  |  | 37 | 
5 | CS(=O)(=O)Nc1ncc(C(F)(F)F)cc1NC(=O)C1CCCCC1 [compound 8] | 81 |  | > 25 | 48 |  | 
6 | C=CC(=O)Nc1cc(C(F)(F)F)cnc1NS(C)(=O)=O [compound 9] | 71 | 81 | > 150 |  |  | inhibition in vivo at 10 mg/kg [4, 7]: 36%; inhibition in vivo at 10 mg/kg [4, 8]: 21%
7 | CS(=O)(=O)Nc1ncc(C(F)(F)F)cc1NC(=O)C(F)(F)Cl [compound 11] | 52 |  | > 150 |  | 24 | Inhibition rate (%) ([2]; dose 100 mg/kg orally): 49%; Inhibition rate of hemorrhagic lesions (%) ([4]; 23 mg/kg continuous intravenous injection): 52%
8 | CCOC(=O)Nc1cc(C(F)(F)F)cnc1NS(C)(=O)=O [compound 15] | 62 | 41 |  |  |  | LD50 at 168 h [3]: 100 to 150 mg/kg; inhibition in vivo at 10 mg/kg [4, 7]: 45%; inhibition in vivo at 10 mg/kg [4, 8]: 61%
9 | CCCOC(=O)Nc1cc(C(F)(F)F)cnc1NS(C)(=O)=O [compound 16] | 43 |  |  | 55 | 24 | LD50 at 168 h [3]: > 100 mg/kg; Inhibition rate of hemorrhagic lesions (%) [4, 9]: 52%
10 | CCCCOC(=O)Nc1cc(C(F)(F)F)cnc1NS(C)(=O)=O [compound 17] | 46 | 31 |  |  |  | LD50 at 168 h [3]: 50 to 100 mg/kg; Inhibition rate of hemorrhagic lesions (%) [4, 9]: 73%
11 | CCOC(=O)NC(=S)Nc1cc(C(F)(F)F)cnc1NS(C)(=O)=O [compound 18] | 64 |  |  |  |  | inhibition at 1000 ppm [6]: 49%; Inhibition rate (%) ([2]; dose 25 mg/kg orally): 49%; LD50 at 168 h [3]: > 150 mg/kg
12 | CCCS(=O)(=O)Nc1ncc(C(F)(F)F)cc1NC(=O)C(F)(F)C(F)(F)F [compound 22] | 74 |  | > 100 |  | 29 | Inhibition rate (%) ([2]; dose 10 mg/kg orally): 39%
13 | CCCCCCCCS(=O)(=O)Nc1ncc(C(F)(F)F)cc1NC(=O)C(F)(F)C(F)(F)F [compound 23] | 37 |  |  | 33 | 30 | 
14 | O=C(NNc1ncc(C(F)(F)F)cc1NC(=O)C(F)(F)C(F)(F)F)c1ccccc1 [compound 39] | 41 |  |  | 53 | 25 | 
15 | C=CC(=O)Nc1cc(C(F)(F)F)cnc1NS(=O)(=O)CC [compound 49] | 30 |  | 175 | 50 |  | Inhibition rate of hemorrhagic lesions (%) ([4]; 42 mg/kg continuous intravenous injection): 68%
16 | C/C=C/C(=O)Nc1cc(C(F)(F)F)cnc1NS(C)(=O)=O [compound 55, N-(2-methylsulfonylamino-5-trifluoromethyl-3-pyridyl)crotonamide] | 49 |  | 237 |  |  | Inhibition rate (%) ([2]; dose 25 mg/kg orally): 59%; Inhibition rate of hemorrhagic lesions (%) ([4]; 40 mg/kg continuous intravenous injection): 65%
17 | CC(=O)OCC(=O)Nc1cc(C(F)(F)F)cnc1NS(C)(=O)=O [compound 63, N-(2-methylsulfonylamino-5-trifluoromethyl-3-pyridyl)acetoxyacetamide] |  |  | > 130 |  |  | inhibition at 1000 ppm [6]: 34%; Inhibition rate (%) ([2]; dose 10 mg/kg orally): 41%; inhibition in vivo at 10 mg/kg [4, 7]: 83%; inhibition in vivo at 10 mg/kg [4, 8]: 66%
